For experiment [1], the system named is 4T1 cells. Briefly: Matrigel invasion assay, parental 4T1 cells. The class given is cell-based, mouse. The settings on record: media supplemented with asparagine (100× of 1×NEAA, 2 days), 24 h matrigel invasion. As to the method:
(§1) The in vitro invasive capacity of cells was measured using 6-well BioCoat Matrigel invasion plates. For parental 4T1 cells, 1×10^6 cells were plated on individual wells, for 4T1-T cells, 8×10^5 cells were plated on individual wells and for MDA-MB-231 cells, 5×10^5 cells were used per individual well. Cells were resuspended in media without serum and cells invaded into media with 5% fetal bovine serum and 5% fetal calf serum. For FIG. 3b and FIG. 9e, 4T1 and MDA-MB-231 cells were cultured in media containing 100× concentration of the specified amino acid (relative to the concentration in 1×NEAA) for 2 days or 3 days, respectively, before starting the invasion assay. After 24 h, non-invaded cells were removed and the invasion wells were washed in PBS, fixed in 2% glutalaldehyde for 2 min and stained with 0.5% crystal violet for 10 min. The wells were washed in distilled H2O, air-dried and scanned using the Odyssey infrared scanner. The signal was quantified using ImageJ (NIH).

The test system of experiment [2] is 4T1 cells. Briefly: CellTrace Violet proliferation assay, parental 4T1 cells. Format: cell-based, mouse. The settings on record: asparagine supplementation, 24 hours. Here is the method: (§2) For the mCherry competition assay, shRNA-transduced mCherry-positive cells were admixed with untransduced cells. mCherry fluorescence was quantified on the LSR II flow cytometer (BD Biosciences). The proliferation assay was carried out using the CellTrace Violet Cell Proliferation Kit (Thermo Fisher Scientific). For FIG. 3b and FIG. 9e, 4T1 and MDA-MB-231 cells were cultured in media containing 100× concentration of the specified amino acid (relative to the concentration in 1×NEAA) for 2 days or 3 days, respectively, before starting the proliferation assay. Cells were stained with CellTrace violet and then trypsinized and re-suspended in media. After 24 hours, cells were collected in order to quantify violet fluorescence intensity using the SH800 flow cytometer (Sony).

Another experiment has as its system MDA-MB-231 cells. Briefly: CellTrace Violet proliferation assay, MDA-MB-231 cells. The settings on record: asparagine supplementation, 24 hours. The class given is cell-based, human. As to the method: as §2
Experiment [3] relates to Asns-silenced 4T1-T cells. The experiment is described as follows: Matrigel invasion assay, Asns-silenced cells. The class given is cell-based, mouse. The settings on record: media supplemented with asparagine. Here is the method: as §1
Experiment [4] relates to Asns-silenced 4T1-T cells. Briefly: mCherry competition assay, Asns-silenced cells. The class given is cell-based, mouse. The settings on record: media supplemented with asparagine. Here is the method:
as §2

The next experiment concerns EMT-up proteins. Briefly: iTRAQ proteomic profiling of EMT-up proteins. The settings on record: parental 4T1 cells; media supplemented with asparagine. The class given is cell-based, mouse. An excerpt:
Cells were washed in ice cold PBS and harvested for iTRAQ quantitative proteomics as previously described in Ross et al. 2004. Three replicates were utilized for each cell line.

The next experiment has as its system EMT-up genes. Briefly: RNAseq of EMT-up genes. The class given is cell-based, mouse. The settings on record: parental 4T1 cells grown in asparagine supplemented media.
Another experiment deals with parental 4T1 cells. Briefly: Orthotopic injection of parental 4T1 cells into NSG mice. The class given is in vivo, mouse. The settings on record: parental 4T1 orthotopic, 60U L-asparaginase 5 times per week for 19 days vs PBS. Here is the method: (§3) All mouse experiments were approved by the Cold Spring Harbor Animal Care and Use Committee. The maximal permitted tumour size of 20 mm in any direction was never exceeded. All mouse injections were carried out with 6-8-week-old female NOD-SCID-112rg^−/− (NSG) mice (JAX). Balb/c mice were not used in this study as the different clonal cell lines have variable GFP levels due to the lentiviral barcode vector. Tail vein injections were carried out using 5×10^5 mouse mammary tumor cells, which were re-suspended in 100 ul of PBS and injected via tail vein. Orthotopic injections were performed using 1×10^5 mouse mammary tumor cells or 5×10^5 MDA-MB-231 cells. For this, cells were re-suspended in a 1:1 mix of PBS and growth factor reduced Matrigel (BD Biosciences). A volume of 20 ul was injected into the mammary gland #4 for mouse mammary tumor cells and a volume of 40 ul was injected for MDA-MB-231 cells. Primary tumor volume was measured using the formula V=½(L×W^2), where L is length and W is width of the primary tumor. For L-asparaginase studies, mice were administered 200 ul of 60U of L asparaginase 5× per week through intraperitoneal injections. […]
(§4) For each lung, five-micron sections were prepared and stained with a standard H&E protocol. Lung metastatic burden was determined by counting individual lung nodules on one section.

The test system of a further experiment is 4T1-T cells. The experiment is described as follows: Orthotopic injection of Asns-silenced or -expressing 4T1-T cells into NSG mice. The settings on record: Asns-silenced 4T1 cells orthotopic; L-asparaginase treated mice. Format: in vivo, mouse. As to the method: as §3, §4
A short description of experiment [5]: Free amino acid quantification in blood serum using HPLC. The class given is in vivo, mouse. The settings on record: NSG mice; 60U L-asparaginase 5 times per week for 19 days. As to the method: as §3, with “tumor.” for “tumor. For L-asparaginase studies, mice were administered 200 ul of 60U of L asparaginase 5× per week through intraperitoneal injections.”
Free amino acids were quantified in cultured cells and blood serum. […] Each sample was quantified in triplicates using High Performance Liquid Chromatography (HPLC) and a flourometric detector. For each replicate, nanomoles of each amino acid was measured. […]

The nature of experiment [6]: Metabolite profiling of mammary gland, serum and lungs by LC-MS/MS. The class given is in vivo, mouse. The settings on record: L-asparaginase treated animals. As to the method:
as §3, with “tumor.” for “tumor. For L-asparaginase studies, mice were administered 200 ul of 60U of L asparaginase 5× per week through intraperitoneal injections.”
Dried-down extracts were re-suspended in 25 ul HPLC-grade water, and 1 ul was analyzed using hydrophilic interaction chromatography (HILIC) coupled to tandem mass spectrometry analysis (LC-MS/MS). […] Metabolite differences were analyzed by normalizing samples to total peak area and comparing replicates for each group using one-way ANOVA with multiple comparisons.

For another experiment, the system named is Twist1 and E-cadherin. Briefly: IHC staining for Twist1 and E-cadherin in primary tumours. The class given is in vivo, mouse. The settings on record: primary tumours of mice treated with L-asparaginase. As to the method:
as §3, with “A volume of 20 ul was injected into the mammary gland #4 for mouse mammary tumor cells and a volume of 40 ul was injected for MDA-MB-231 cells.” left out, “tumor.” for “tumor. For L-asparaginase studies, mice were administered 200 ul of 60U of L asparaginase 5× per week through intraperitoneal injections.”
For immunohistochemistry, primary tumors and lungs were processed as previously described in Wagenblast et al. 2015. […] Ecadherin and Twist1 diaminobenzidine-stained (DAB) and hematoxylin stainings were quantified using ImageJ (NIH). For this, images were color deconvoluted according to Ruifrok et al. 2001 and the percent area of E-cadherin and Twist1 positive staining was measured.

The subject of another experiment is solid tumours. The settings on record: Tallal et al. 1970; cited from earlier work.

Take `NC(=O)C[C@H](N)C(=O)O` [asparagine]: in the experiment with 4T1 cells [1], the increase in invasiveness entry is recorded as “approximately 2 fold”. The growth entry with 4T1 cells [2] and with MDA-MB-231 cells was “not impacted” each time. In addition, in experiment [3], the capacity to invade result was “increased”. In addition, the capacity to grow entry in experiment [4] is reported as “increased”. For the same compound, in the experiment with EMT-up proteins, the “expression of EMT-up proteins” value is “increased in expression”. Further, in the experiment with EMT-up genes, the “mRNA levels of EMT-up genes” value is recorded as “increased”.

In the case of L-asparaginase, in the experiment with parental 4T1 cells, the primary tumour volumes result is listed as “no significant difference”. For the same compound, the metastatic burden entry in the experiment with parental 4T1 cells (lung) was “significant reduction”. In addition, in the experiment on 4T1-T cells, the primary tumour volume entry is “reduction” and the resultant metastases is listed as “nearly undetectable”. The “serum asparagine (HPLC)” value in [5] is “undetectable”. Moreover, the “asparagine in the serum (mass spectrometry)” value in experiment [6] is “nearly undetectable”. Besides, the “Twist1 and E-cadherin expression (IHC)” value in the experiment on Twist1 and E-cadherin is reported as “significant expression change”. Also, in the experiment with solid tumours, the treating solid tumours entry is “ineffective”.

Values taken from patent US20200281243A1, “DIETARY PRODUCT” (CANCER RESEARCH TECHNOLOGY LTD, priority 2017, published 2020).
